These results are taken from publication PMC7504677, “Impact of N-Alkylamino Substituents on Serotonin Receptor (5-HTR) Affinity and Phosphodiesterase 10A (PDE10A) Inhibition of Isoindole-1,3-dione Derivatives” (Molecules, 2020).

Series [1] concerns the target PDE10A (Homo sapiens, UniProt Q9Y233). The experiment in a line: luminescence PDE inhibition assay (PDElight HTS cAMP phosphodiesterase assay kit). Type of series: biochemical. The settings on record: for inhibition at 3 µM / inhibition at 10 µM: 1 h. As for the experimental part: Test and reference compounds were dissolved in dimethyl sulfoxide (DMSO) at a concentration of 1 mM and further diluted in assay buffer in order to obtain the final concentration of compounds: 10 µM and 3 µM, respectively. All reactions were carried out at 37 °C in white, half-area 96-well plates (Perkin Elmer, Waltham, MA, USA). The inhibition of PDE 10A enzyme was measured using the PDElight HTS cAMP phosphodiesterase assay kit (Lonza) according to the manufacturer’s recommendations. 2.5 U of PDE 10A enzyme was preincubated either with DMSO (vehicle control) or compound for 20 min before incubation with the substrate, cAMP (final concentration 1.25 µM), for 1 h. Then, PDELight AMP Detection Reagent was added. After 10 min incubation, the luminescence was measured in a multifunction plate reader (POLARstar Omega, BMG Labtech, Ortenberg, Germany).

The target in series [2] is T1, 5-HT1A receptor (Homo sapiens, UniProt P08908).
T1 sequence (P08908 1-422): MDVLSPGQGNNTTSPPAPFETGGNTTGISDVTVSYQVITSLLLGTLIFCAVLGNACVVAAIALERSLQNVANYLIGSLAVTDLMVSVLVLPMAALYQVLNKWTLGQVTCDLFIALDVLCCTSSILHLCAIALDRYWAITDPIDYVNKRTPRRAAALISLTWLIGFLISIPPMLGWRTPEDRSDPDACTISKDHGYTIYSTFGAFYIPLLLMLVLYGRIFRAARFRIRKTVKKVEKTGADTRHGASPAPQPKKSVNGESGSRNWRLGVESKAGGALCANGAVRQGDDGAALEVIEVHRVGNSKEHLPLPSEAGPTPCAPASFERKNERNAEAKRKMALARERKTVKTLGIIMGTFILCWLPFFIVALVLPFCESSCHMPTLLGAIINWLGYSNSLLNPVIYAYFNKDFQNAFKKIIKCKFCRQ
The experiment in a line: radioligand binding assay, [3H]8-OH-DPAT. The note with it: read-out: 5-HT1A 1 µM ± SEM (% of control specific binding). As for the experimental part:
(§1) Briefly: binding experiments were conducted in 96-well microplates in a total final volume of 250 μL of appropriate buffers. Reaction mix included 50 μL solution of test compound, 50 μL of radioligand ([^3H]8-OH-DPAT for 5-HT1A, and [^3H]-LSD for 5-HT7, respectively) and 150 μL of diluted membranes (see description and Table S2 in Supporting Materials). Specific assay conditions for each receptor are described elsewhere. The radioactivity was measured in a MicroBeta2 scintillation counter (PerkinElmer, USA). Each compound was tested in the assay as duplicate samples at 1 µM final concentrations. Results were expressed as percent inhibition of specific binding.

In series [3] the target is 5-HT7 receptor (Homo sapiens, UniProt P34969). In words: radioligand binding assay, [3H]-LSD. The note with it: read-out: 5-HT7 1 µM ± SEM (% of control specific binding). As for the experimental part:
as §1

The target in series [4] is T2, 5-HT2A receptor (Homo sapiens, UniProt P28223).
T2 construct: Cerep (protocol)
T2 sequence (P28223 whole entry): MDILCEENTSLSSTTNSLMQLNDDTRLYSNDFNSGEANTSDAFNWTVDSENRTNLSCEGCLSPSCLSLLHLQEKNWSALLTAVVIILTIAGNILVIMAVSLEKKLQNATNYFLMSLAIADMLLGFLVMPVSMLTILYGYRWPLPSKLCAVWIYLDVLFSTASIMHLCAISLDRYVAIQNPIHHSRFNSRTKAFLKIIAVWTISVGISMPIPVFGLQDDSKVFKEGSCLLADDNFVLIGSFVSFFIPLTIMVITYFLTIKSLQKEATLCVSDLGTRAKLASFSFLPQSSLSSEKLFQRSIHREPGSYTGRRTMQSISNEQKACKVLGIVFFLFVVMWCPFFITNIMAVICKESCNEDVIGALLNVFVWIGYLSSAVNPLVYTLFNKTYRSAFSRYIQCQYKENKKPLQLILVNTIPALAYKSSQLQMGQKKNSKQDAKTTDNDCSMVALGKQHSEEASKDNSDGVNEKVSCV
The experiment in a line: CEREP screening, inhibition of control binding. The note with it: CEREP Laboratories, read-out: percent of inhibition of the control binding for 5-HT2A.

The target in series [5] is T3, D2 receptor (Homo sapiens, UniProt P14416).
T3 construct: Cerep (protocol)
T3 sequence (P14416 whole entry): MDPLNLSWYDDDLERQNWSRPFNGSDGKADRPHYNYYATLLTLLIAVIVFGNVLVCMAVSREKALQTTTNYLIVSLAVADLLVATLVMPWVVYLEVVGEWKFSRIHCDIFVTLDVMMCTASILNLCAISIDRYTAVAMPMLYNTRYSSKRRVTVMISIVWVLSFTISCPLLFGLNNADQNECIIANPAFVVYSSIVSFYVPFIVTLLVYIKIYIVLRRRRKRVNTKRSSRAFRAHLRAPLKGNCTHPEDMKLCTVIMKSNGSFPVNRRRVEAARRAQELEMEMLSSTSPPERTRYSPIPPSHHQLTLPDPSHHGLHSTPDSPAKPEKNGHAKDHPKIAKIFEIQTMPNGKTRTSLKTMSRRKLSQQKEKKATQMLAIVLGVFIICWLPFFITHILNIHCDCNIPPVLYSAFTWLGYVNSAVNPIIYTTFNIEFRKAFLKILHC
In words: CEREP screening, inhibition of control binding. The settings on record: CEREP Laboratories, read-out: percent of inhibition of the control binding for D2.

In series [6] the test system is HePG2 human liver cancer cell-line. In words: MTT cytotoxicity assay. The note with it: HepG2 cells, 24 h, 0.1–100 µM. Type of series: cell-based. Here is the method:
(§2) The HePG2 human liver cancer cell-line, (ATCC® 59195™) and the SH-SY5Y human neuroblastoma cell-line (ATCC® CRL-2266™) were used in the study. The cells were cultured in standard conditions (37 °C, 5% CO2), in EMEM (HepG2 and SH-SY5Y), supplemented with 10% fetal bovine serum (FBS) (Gibco, Thermo Fisher Scientific, Waltham, MA. USA) and antibiotics (Lonza, Köln, Germany).
(§3) The MTT assay was used to determine the cytotoxic effects of the analyzed compounds. Cells were seeded at a density of 2 × 10^4 in 96-well plates. Following overnight culture, cells were then treated with increasing concentrations of compound 18 (0.1–100 µM) and incubated for 24 h. Following cell exposure for 24 h, 10 µL MTT reagent (Sigma Aldrich) was added to each well and, after 3 h of incubation (37 °C, 5% CO2), the medium was aspirated and the formazan produced in the cells appeared as dark crystals in the bottom of the wells. Next, Crystal DMSO was added to each well. Then, the optical density (OD) of each well was determined at 570 nm on a plate-reader (Spectra iD3, Molecular Devices, San Jose, CA, USA). The number of metabolically active and living cells is directly proportional to the absorbance of the samples. The results are presented in Figure 5 as the percentage of control ± SEM. Doxorubicin was used as reference standard (cytotoxic agent).
For orientation: Tetrazolium assays rely on reduction of a dye to a coloured formazan, in cell work by metabolically active cells.

Series [7] deals with SH-SY5Y human neuroblastoma cell-line. In words: MTT cytotoxicity assay. Type of series: cell-based. The settings on record: SHSY-5Y cells, 24 h, 0.1–100 µM. As for the experimental part:
as §2, §3

Series [8] relates to CD-1 mice. The experiment in a line: d-amphetamine-induced hyperlocomotor activity. The class given is in vivo. As for the experimental part: The experiments were performed on male CD-1 mice (in the accredited animal facility at the Jagiellonian University Medical College, Krakow, Poland), and mice were kept in groups of ten in Makrolon type 3 cages (dimensions 26.5 × 15 × 42 cm). The animals were kept in an environmentally controlled room (ambient temperature 22 ± 2 °C; relative humidity 50–60%; 12:12 light:dark cycle, lights on at 8:00). They were allowed to acclimatize with the environment for one week before commencement of the experiments. Standard laboratory food (Ssniff M-Z) and filtered water were freely available. All the experimental procedures were approved by the I Local Ethics Commission at the Jagiellonian University in Krakow (Approval Nos.: 125/2017, 123/2015, and 158/2017). All the experiments were conducted in the light phase between 09.00 and 14.00 h. Each experimental group consisted of 7–10 animals per treatment dose. The animals were used only once. Locomotor activity was recorded with an Opto M3 multi-channel activity monitor (MultiDevice Software v.1.3, Columbus Instruments, Columbus, OH, USA). The CD-1 mice were individually placed in plastic cages (22 × 12 × 13 cm) immediately after drug administration, and then ambulation was counted during 1 h with data recording every 10 min. The cages were cleaned up with 70% ethanol after each mouse. […] All compounds were injected at a volume of 10 mL/kg. Control animals received a vehicle injection according to the same schedule.

For series [9], the system named is CD-1 mice. In words: spontaneous locomotor activity. Type of series: in vivo. The settings on record: for spontaneous locomotor activity: mean ± S.E.M. As for the experimental part:
The experiments were performed on male CD-1 mice (in the accredited animal facility at the Jagiellonian University Medical College, Krakow, Poland), and mice were kept in groups of ten in Makrolon type 3 cages (dimensions 26.5 × 15 × 42 cm). The animals were kept in an environmentally controlled room (ambient temperature 22 ± 2 °C; relative humidity 50–60%; 12:12 light:dark cycle, lights on at 8:00). They were allowed to acclimatize with the environment for one week before commencement of the experiments. Standard laboratory food (Ssniff M-Z) and filtered water were freely available. All the experimental procedures were approved by the I Local Ethics Commission at the Jagiellonian University in Krakow (Approval Nos.: 125/2017, 123/2015, and 158/2017).
All the experiments were conducted in the light phase between 09.00 and 14.00 h. Each experimental group consisted of 7–10 animals per treatment dose. The animals were used only once.
Locomotor activity was recorded with an Opto M3 multi-channel activity monitor (MultiDevice Software v.1.3, Columbus Instruments, Columbus, OH, USA). The CD-1 mice were individually placed in plastic cages (22 × 12 × 13 cm) immediately after drug administration, and then ambulation was counted during 1 h with data recording every 10 min. The cages were cleaned up with 70% ethanol after each mouse.
Locomotor activity was recorded according to the method described above.
All compounds were injected at a volume of 10 mL/kg. Control animals received a vehicle injection according to the same schedule.

Setting [10] is: percentage of inhibition respective to vehicle control (DMSO), 3 µM.
Where [11] appears, read: percentage of inhibition respective to vehicle control (DMSO), 10 µM.
Where [12] appears, read: 60 mg/kg ip, 10 min of the test.
[13] abbreviates: 60 mg/kg ip, 20 min of the test.
The mark [14] stands for this setting: 60 mg/kg ip, 30 min of the test.
Where [15] appears, read: 60 mg/kg ip, 60 min of the test.

Chain of PDE10A (Q9Y233 whole entry, species assumed): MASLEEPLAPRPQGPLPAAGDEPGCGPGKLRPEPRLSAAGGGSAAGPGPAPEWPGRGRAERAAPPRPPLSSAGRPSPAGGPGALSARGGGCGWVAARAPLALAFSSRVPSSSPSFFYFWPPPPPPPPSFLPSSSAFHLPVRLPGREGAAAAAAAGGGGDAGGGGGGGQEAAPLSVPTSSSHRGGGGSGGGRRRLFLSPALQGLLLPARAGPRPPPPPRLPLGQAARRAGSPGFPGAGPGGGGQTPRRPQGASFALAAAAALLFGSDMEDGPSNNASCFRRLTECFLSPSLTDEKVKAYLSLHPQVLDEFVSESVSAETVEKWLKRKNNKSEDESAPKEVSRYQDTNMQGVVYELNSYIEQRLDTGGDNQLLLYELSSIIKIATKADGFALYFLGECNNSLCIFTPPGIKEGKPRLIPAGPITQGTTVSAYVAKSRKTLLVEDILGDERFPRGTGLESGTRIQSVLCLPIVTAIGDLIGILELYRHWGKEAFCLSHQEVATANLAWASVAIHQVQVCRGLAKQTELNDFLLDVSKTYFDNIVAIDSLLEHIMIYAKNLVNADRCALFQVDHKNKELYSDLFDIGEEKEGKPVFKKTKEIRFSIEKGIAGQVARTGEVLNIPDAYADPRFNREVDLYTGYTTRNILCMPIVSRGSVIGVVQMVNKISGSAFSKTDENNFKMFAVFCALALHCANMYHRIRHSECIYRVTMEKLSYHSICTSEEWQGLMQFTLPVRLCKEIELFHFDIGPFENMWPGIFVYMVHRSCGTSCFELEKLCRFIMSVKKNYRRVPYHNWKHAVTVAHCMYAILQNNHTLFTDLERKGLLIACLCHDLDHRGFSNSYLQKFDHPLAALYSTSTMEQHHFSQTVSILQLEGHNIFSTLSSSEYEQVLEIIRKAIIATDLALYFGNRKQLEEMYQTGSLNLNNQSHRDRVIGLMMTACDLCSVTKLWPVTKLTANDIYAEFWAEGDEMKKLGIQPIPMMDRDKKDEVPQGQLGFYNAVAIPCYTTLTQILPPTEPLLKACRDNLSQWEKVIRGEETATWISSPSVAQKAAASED
Chain of 5-HT7 receptor (P34969 whole entry): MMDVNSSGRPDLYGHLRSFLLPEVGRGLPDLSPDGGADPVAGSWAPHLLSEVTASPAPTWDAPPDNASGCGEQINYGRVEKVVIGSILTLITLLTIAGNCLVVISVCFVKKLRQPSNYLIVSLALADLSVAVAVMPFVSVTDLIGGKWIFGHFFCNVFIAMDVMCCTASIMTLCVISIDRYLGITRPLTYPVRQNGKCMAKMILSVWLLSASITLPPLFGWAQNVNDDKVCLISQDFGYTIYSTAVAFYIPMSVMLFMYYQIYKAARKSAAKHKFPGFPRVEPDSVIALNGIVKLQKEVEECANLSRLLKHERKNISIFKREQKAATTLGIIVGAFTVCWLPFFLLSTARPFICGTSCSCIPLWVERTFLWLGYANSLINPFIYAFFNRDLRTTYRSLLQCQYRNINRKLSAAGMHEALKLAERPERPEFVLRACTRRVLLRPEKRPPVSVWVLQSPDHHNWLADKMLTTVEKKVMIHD

Consider `COc1cccc2c1C(=O)N(CCCCc1nc3ccccc3[nH]1)C2=O` [Compound 18, 2-[4-(1H-Benzimidazol-2-yl)butyl]-4-methoxy-1H-isoindole-1,3(2H)-dione], for which the melting point – broadly, the temperature, or range, at which the solid turns liquid – is 69 to 70 °C. This molecule showed an inhibition at 3 µM in series [1] (setting [10]) of 79%. The inhibition at 10 µM in [1] (setting [11]) amounted to 92%. Also, the IC50 (usually the midpoint of a concentration-inhibition curve) in series [1] (SEM of three independent experiments performed in duplicate) was found to be 0.886 ± 0.017 µM. Besides, the inhibition at 1 µM in series [2] came out at 28 ± 3%. For the same molecule, the inhibition at 1 µM in [3] came out at 3 ± 1%. For the same molecule, the inhibition at 1 µM in series [4] was 8.8%. Also, the inhibition at 1 µM in [5] was 0%. Moreover, in series [6], the “cell viability (MTT)” value is listed as “Decreasing cell viability (HepG2/SHSY-5Y) is observed only at higher concentrations”. Besides, in [7], the “cell viability (MTT)” value is “Decreasing cell viability (HepG2/SHSY-5Y) is observed only at higher concentrations”. Further, the “effect on AMPH-induced hyperactivity” value in series [8] (60 mg/kg ip) is given as “decreased AMPH-induced hyperactivity, but only for the first 10 min after injection”. The “effect on AMPH-induced hyperactivity” value in [8] (lower doses (data not shown)) is “did not change the stimulating effect of AMPH”. In addition, the “effect on spontaneous locomotor activity” value in series [9] (60 mg/kg) is “locomotor-suppressing effects were observed”. In series [9] (setting [12]), this molecule returned a spontaneous locomotor activity of 176.2. The spontaneous locomotor activity in series [9] (setting [13]) came to 285.0. The same molecule returned a spontaneous locomotor activity in series [9] (setting [14]) of 659.6. The molecule further came in with a spontaneous locomotor activity in series [9] (setting [15]) of 1875.4.

As to `O=C1c2ccccc2C(=O)N1CCCCCc1nc2ccccc2[nH]1` [Compound 23, 2-[5-(1H-Benzimidazol-2-yl)pentyl]-1H-isoindole-1,3(2H)-dione], the melting point lay within 168 to 169 °C. The same molecule registered an inhibition at 3 µM in series [1] (setting [10]) of 26%. Besides, the inhibition at 10 µM in series [1] (setting [11]) was 58%. The inhibition at 1 µM in [2] was 48 ± 3%. Further, in series [3], the inhibition at 1 µM is 34 ± 2%.

Regarding `COc1ccc(Cc2nccc3cc(OC)c(OC)cc23)cc1OC` [Papaverine, papaverine], the “PDE10A [%] 3 µM” value in [1] (setting [10]) amounted to 54%. In addition, in series [1] (setting [11]), the “PDE10A [%] 10 µM” value amounted to 75%. In addition, the “effect on AMPH-induced hyperactivity” value in series [8] (40 and 60 mg/kg ip) was “dose-dependently antagonized this response”; in [8] (lower doses (data not shown)) it was “did not change the stimulating effect of AMPH”. Also, the spontaneous locomotor activity in series [9] (40 mg/kg ip, 10 min of the test) was 43.1; in series [9] (40 mg/kg ip, 20 min of the test), 170.2; in series [9] (40 mg/kg ip, 30 min of the test) it was 571.9; in series [9] (40 mg/kg ip, 60 min of the test) it was 2260.8; in series [9] (setting [12]), 7.1; in [9] (setting [13]) it was 24.6. Moreover, the spontaneous locomotor activity amounted to 47.5 in series [9] (setting [14]) and 200.4 in series [9] (setting [15]). Also, in [9] (40 and 60 mg/kg), the “effect on spontaneous locomotor activity” value is listed as “locomotor-suppressing effects were observed”.

Take `COc1cccc2c1C(=O)c1c(O)c3c(c(O)c1C2=O)C[C@@](O)(C(=O)CO)C[C@@H]3O[C@H]1C[C@H](N)[C@H](O)[C@H](C)O1` [doxorubicin, reference compound]: the “cell viability (MTT)” value in [6] and in [7] was “significantly decreased cell viability already at much lower concentrations” throughout.
